Laboratory results from US9082985B2, “Arylsulfonic acid compound and use thereof as electron-acceptor material” (NISSAN CHEMICAL INDUSTRIES, LTD., priority 2008, dated 2015).

test: Solubility test: amount of cyclohexanol (CHA) added until the varnish became clouded; type: physicochemical; conditions: varnish of arylsulfonic acid compound with PTA (0.5 molar equivalents; 1.0 for NSO-2) in 1 g DMI, solid content 7.0 wt %; amount of CHA when the varnish became clouded
Experimental: The arylsulfonic acid compounds obtained in the above Examples 1 to 4 and Comparative Example 1 were subjected to a solubility test in solvent according to the following procedure.
The respective arylsulfonic acid compounds obtained in Examples 1 to 4 and 0.5 molar equivalents of PTA, relative to the compound, were dissolved in 1 g of 1,3-dimethyl-2-imidazolidinone (hereinafter abbreviated as DMI) so that the solid content was set at 7.0 wt %, thereby preparing varnishes.
Cyclohexanol (hereinafter abbreviated as CHA) was added to the resulting varnish to determine, as an index for solubility, an amount of CHA at the time when the varnish became clouded.
NSO-2 obtained in Comparative Example 1 and 1.0 molar equivalent of PTA, relative to NSO-2, were dissolved in 1 g of DMI so that the solid content was set at 7.0 wt %, thereby preparing a varnish.
CHA was added to the resulting varnish to determine, as an index for solubility, an amount of CHA at the time when the varnish became clouded.

Compound | Amount of dissolution in CHA
O=S(=O)(O)c1ccc2c(Oc3c(F)c(F)c(C(F)(F)F)c(F)c3F)cc(S(=O)(=O)O)cc2c1 [Example 7FNS-1, Perfluorotoluene naphthalenesulfonic acid compound] | >10 g
N#Cc1c(F)c(F)c(Oc2cc(S(=O)(=O)O)cc3cc(S(=O)(=O)O)ccc23)c(F)c1C#N [Example 3FNS-1, Dicyanoperfluorotoluenesulfonic acid compound] | 8.0 g
O=S(=O)(O)c1ccc2c(Oc3c(F)c(F)c(C(F)(F)C(F)=C(F)F)c(F)c3F)cc(S(=O)(=O)O)cc2c1 [Example 9FNS-1, Perfluoroallylbenzene naphthalenesulfonic acid compound] | >10 g
N#Cc1c(F)c(F)c(Oc2cc(S(=O)(=O)O)cc3cc(S(=O)(=O)O)ccc23)c(F)c1F [Example 4FNS-2, Cyanoperfluorotoluenesulfonic acid compound] | >10 g
O=S(=O)(O)c1ccc2c(Oc3c(F)c(F)c(-c4c(F)c(F)c(Oc5cc(S(=O)(=O)O)cc6cc(S(=O)(=O)O)ccc56)c(F)c4F)c(F)c3F)cc(S(=O)(=O)O)cc2c1 [NSO-2, Naphthalenedisulfonic acid compound, reference compound] | 3.3 g
